Earlier results as cited in patent US11433083B2, “High-strength testosterone undecanoate compositions” (priority 2010, dated 2022).

CCCCCCCCCCC(=O)O[C@H]1CC[C@H]2[C@@H]3CCC4=CC(=O)CC[C@]4(C)[C@H]3CC[C@]12C [Testosterone undecanoate, testosterone undecanoate]
water solubility: < 0.3 ng/mL
